Source: ChEMBL document CHEMBL5532640, “Medicinal chemistry strategies targeting NLRP3 inflammasome pathway: A recent update from 2019 to mid-2023” (Eur J Med Chem, 2023)
pIC50: −log10 of the molar value. Converted amounts (≈) assume the structure as drawn.

Assays:
[1] = biological target: T1, NACHT, LRR and PYD domains-containing protein 3 (Mus musculus, UniProt Q8R4B8); test: Inhibition of NLRP3 inflammasome in mouse J774.A1 cells assessed as decrease in LPS/nigericin induced IL-1beta level preincubated with LPS for 4 hrs followed by compound addition for 1 hr in presence nigericin by ELISA; assay type: cell-based
[2] = Cytotoxicity against mouse J774.A1 cells; assay type: toxicity, cell-based; conditions: read-out: TC50 (the source's name)
[3] = Inhibition of LPS/nigericin induced LDH release in mouse J774.A1 cells; assay type: functional, cell-based
[4] = biological target: T1, NACHT, LRR and PYD domains-containing protein 3; test: Inhibition of NLRP3 in LPS/ATP induced mouse J774.A1 cells; assay type: cell-based
[5] = biological target: T1, NACHT, LRR and PYD domains-containing protein 3; test: Covalent inhibition of NLRP3 in mouse BMDMs assessed as reduction in LPS/nigericin induced IL-1beta secretion pretreated with LPS for 3 hrs followed by compound addition for 30 mins prior to nigericin addition and measured after 30 mins by ELISA; assay type: cell-based, BMDM
[6] = biological target: T1, NACHT, LRR and PYD domains-containing protein 3; test: Inhibition of NLRP3 in mouse BMDMs assessed as reduction in LPS/ATP-induced IL-1beta release preincubated for 30 mins in presence of LPS followed by ATP addition and measured after 1 hr by ELISA; assay type: cell-based, BMDM
[7] = Stability in mouse liver microsomes assessed as compound remaining after 60 mins; assay type: ADME, Microsome; conditions: read-out: Stability
[8] = Half life in C57BL/6 mouse at 20 mg/kg, po; assay type: ADME, organism-based; conditions: in vivo
[9] = Stability in human liver microsomes assessed as compound remaining after 60 mins; assay type: ADME, Microsome; conditions: read-out: Stability
[10] = biological target: T2, NACHT, LRR and PYD domains-containing protein 3 (Homo sapiens, UniProt Q96P20); test: Inhibition of NLRP3 in human THP-1 cells assessed as reduction in LPS/ATP induced IL-1beta release at 10 uM preincubated with LPS for 4 hrs followed by compound addition for 1 hr prior to ATP stimulation for 1.5 hrs by ELISA relative to control; assay type: cell-based; conditions: time 2.5 hrs
[11] = biological target: T2, NACHT, LRR and PYD domains-containing protein 3; test: Inhibition of NLRP3 in LPS/ATP induced human THP1 cells; assay type: cell-based, THP-1
[12] = biological target: T1, NACHT, LRR and PYD domains-containing protein 3; test: Inhibition of NLRP3 inflammasome in mouse BMDMs assessed as reduction in IL-1beta activity preincubated with LPS for 4 hrs followed by compound addition for 30 mins prior to nigericin addition and measured after 1 hr by ELISA; assay type: cell-based, BMDM
[13] = Solubility of the compound at pH 1.5; assay type: physicochemical; conditions: buffer
[14] = Inhibition of porcine whole blood NLRP3 assessed as reduction in LPS/ATP induced IL-1beta secretion preincubated for 3 hrs in presence of LPS followed by ATP addition and measured after 1 hr by immunoassay; conditions: Sus scrofa
[15] = biological target: T2, NACHT, LRR and PYD domains-containing protein 3; test: Inhibition of NLRP3 inflammasome in human MDM cells assessed as reduction in LPS/nigericin induced IL-1beta secretion […] prior to nigericin addition and measured after 5 hrs by ELISA; assay type: cell-based
[16] = Cmax in human at 1000 mg per day, po administered for 8 consecutive days; assay type: ADME, organism-based; conditions: in vivo
[17] = biological target: T1, NACHT, LRR and PYD domains-containing protein 3; test: Inhibition of NLRP3 in mouse J774.A1 cells assessed as reduction in LPS/ATP induced IL-1beta secretion; assay type: cell-based

T1 sequence (Q8R4B8 whole entry, the tested form may be a part): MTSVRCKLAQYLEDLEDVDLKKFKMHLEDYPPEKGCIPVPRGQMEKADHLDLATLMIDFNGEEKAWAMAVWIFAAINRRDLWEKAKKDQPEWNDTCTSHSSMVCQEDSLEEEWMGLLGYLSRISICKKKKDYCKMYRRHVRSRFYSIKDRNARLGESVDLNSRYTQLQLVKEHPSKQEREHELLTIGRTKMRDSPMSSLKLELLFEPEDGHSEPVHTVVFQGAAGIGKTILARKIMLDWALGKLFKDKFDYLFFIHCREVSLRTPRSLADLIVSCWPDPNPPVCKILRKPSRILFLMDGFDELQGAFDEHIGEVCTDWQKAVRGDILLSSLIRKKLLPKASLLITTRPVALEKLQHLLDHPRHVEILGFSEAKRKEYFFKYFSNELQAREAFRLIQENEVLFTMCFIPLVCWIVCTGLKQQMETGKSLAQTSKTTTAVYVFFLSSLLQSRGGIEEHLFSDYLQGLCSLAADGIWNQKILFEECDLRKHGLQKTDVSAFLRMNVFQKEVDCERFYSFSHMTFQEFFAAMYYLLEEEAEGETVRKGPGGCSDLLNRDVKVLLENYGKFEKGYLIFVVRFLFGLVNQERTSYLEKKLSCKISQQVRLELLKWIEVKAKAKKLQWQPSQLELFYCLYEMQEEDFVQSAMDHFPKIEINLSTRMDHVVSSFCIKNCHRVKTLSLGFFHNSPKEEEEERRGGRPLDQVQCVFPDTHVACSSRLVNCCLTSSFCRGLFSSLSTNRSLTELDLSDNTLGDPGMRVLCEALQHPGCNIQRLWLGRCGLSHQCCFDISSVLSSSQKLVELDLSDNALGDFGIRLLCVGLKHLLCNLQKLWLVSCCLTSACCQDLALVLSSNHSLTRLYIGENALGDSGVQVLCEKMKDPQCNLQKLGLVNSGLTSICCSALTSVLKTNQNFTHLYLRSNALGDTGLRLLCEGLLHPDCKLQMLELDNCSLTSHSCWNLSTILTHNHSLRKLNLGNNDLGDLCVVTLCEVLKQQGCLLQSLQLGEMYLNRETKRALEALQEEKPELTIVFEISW
T2 sequence (Q96P20 whole entry, the tested form may be a part): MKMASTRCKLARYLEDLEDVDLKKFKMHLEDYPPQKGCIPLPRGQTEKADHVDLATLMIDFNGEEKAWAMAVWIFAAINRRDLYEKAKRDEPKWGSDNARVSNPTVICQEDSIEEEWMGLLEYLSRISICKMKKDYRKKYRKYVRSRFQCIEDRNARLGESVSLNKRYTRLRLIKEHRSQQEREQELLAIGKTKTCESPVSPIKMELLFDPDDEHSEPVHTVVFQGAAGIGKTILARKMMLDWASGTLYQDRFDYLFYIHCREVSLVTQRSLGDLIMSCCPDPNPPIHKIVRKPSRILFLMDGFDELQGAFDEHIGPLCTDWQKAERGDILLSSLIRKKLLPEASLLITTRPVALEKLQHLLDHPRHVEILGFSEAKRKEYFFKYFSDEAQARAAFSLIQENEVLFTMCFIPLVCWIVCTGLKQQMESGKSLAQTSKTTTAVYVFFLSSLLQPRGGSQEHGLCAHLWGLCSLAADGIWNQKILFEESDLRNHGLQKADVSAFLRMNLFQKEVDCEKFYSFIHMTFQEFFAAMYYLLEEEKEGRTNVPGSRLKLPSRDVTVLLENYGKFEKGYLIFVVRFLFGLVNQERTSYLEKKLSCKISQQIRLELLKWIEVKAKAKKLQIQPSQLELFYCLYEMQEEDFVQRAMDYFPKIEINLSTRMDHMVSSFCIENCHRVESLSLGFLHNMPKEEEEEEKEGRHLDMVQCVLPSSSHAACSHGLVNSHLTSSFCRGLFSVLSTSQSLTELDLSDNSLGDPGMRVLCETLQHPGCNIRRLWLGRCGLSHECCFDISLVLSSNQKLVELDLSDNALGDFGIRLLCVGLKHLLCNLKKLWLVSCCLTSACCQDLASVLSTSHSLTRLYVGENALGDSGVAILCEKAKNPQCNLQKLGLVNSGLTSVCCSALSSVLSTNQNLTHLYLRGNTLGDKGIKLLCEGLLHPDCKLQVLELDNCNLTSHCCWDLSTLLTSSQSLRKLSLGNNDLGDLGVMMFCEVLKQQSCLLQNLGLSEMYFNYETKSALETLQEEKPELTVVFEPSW

CC(=O)O[C@@H]1C[C@H]2C(C)(C)OC(=O)C=C[C@]2(C)[C@H]2CC[C@]3(C)C(=CC[C@H]3C3=CC(=O)O[C@@H]3O)[C@@]21C
pIC50 [1]: 5.49

Cc1ccc(S(=O)(=O)/C=C/C#N)cc1
CC50 [2]: 6400 nM

CC1(C)CCC[C@@]2(C)C1=C(O)C(=O)c1cc(C(C)(C)O)c(O)c(O)c12
pIC50 [3]: 6.64

CC(=O)O[C@H]1[C@@H](OC(C)=O)[C@@]2(C)C3=CC[C@@H](C4=CC(=O)O[C@@H]4O)[C@]3(C)CC[C@@H]2[C@@]2(C)C=CC(=O)OC(C)(C)[C@H]12
pIC50 [1]: 5.49

CC(=O)O[C@H]1C=C2C=C(C(C)C)C(=O)C(O)=C2[C@@]2(C)CCCC(C)(C)[C@H]12
pIC50 [3]: 6.64

O=C(/C=C/S(=O)(=O)c1ccccc1Cl)OCCc1ccccc1
CC50 [2]: 41800 nM | pIC50 [4]: 6.04

CCO[C@H]1C[C@H]2C(C)(C)CCC[C@]2(C)C2=C1C=C(C(C)C)C(=O)C2=O
pIC50 [3]: 6.64

O=C(CBr)NCc1ccc(C(F)(F)F)cc1
pIC50 [5]: 6.74

CC(C)C1=CC2=C[C@H](O)[C@H]3C(C)(C)CCC[C@]3(C)[C@@]2(O)C(=O)C1=O
pIC50 [3]: 6.64

CC(C)n1ccc(S(=O)(=O)NC(=O)Nc2c3c(cc4c2CCC4)CCC3)n1 [INZOMELID]
pIC50 [6]: 7.80

CC(C)(O)c1coc(S(=O)(=O)NC(=O)Nc2c3c(cc4c2CCC4)CCC3)c1
remaining at 1 h [7]: > 70% | half-life [8]: 3.27 h | remaining at 1 h [9]: > 70%

O=C(CCc1ccccc1Cl)N1CCC(n2c(=O)[nH]c3ccccc32)CC1
inhibition [10]: 10.3%

CO[C@@H]1C2=C(C(=O)C(=O)C(C(C)C)=C2)[C@@]2(C)CCCC(C)(C)[C@@H]2[C@H]1O
pIC50 [3]: 6.64

C=C(Cc1ccccc1Cl)C(=O)N1CCC(n2c(=O)[nH]c3ccccc32)CC1
inhibition [10]: 14.4%

C=C1C(=O)[C@]23[C@H](O)[C@H]1CC[C@H]2[C@@]12CO[C@]3(O)[C@@H](O)[C@@H]1C(C)(C)CC[C@@H]2O [ORIDONIN]
pIC50 [11]: 5.29

O=C(CCc1ccccc1Cl)NCCn1c(=O)[nH]c2ccccc21
inhibition [10]: 20.3%

NS(=O)(=O)c1ccc(CCNC(=O)/C=C/S(=O)(=O)c2ccccc2Cl)cc1
CC50 [2]: 27500 nM | pIC50 [4]: 5.74

N#C/N=C(\NCc1ccccc1)NC1CCN(C(=O)CCc2ccccc2Cl)CC1
inhibition [10]: 25.2%

CC1=C(O)C(=O)C=C2C1=CC=C1[C@@]2(C)[C@@H](Br)C[C@@]2(C)[C@@H]3C[C@@H](C)C(=O)C[C@]3(C)CC[C@]12C
pIC50 [12]: 6.72

CN[C@@H]1COc2c(S(=O)(=O)NC(=O)Nc3c4c(cc5c3CCC5)CCC4)cnn2C1
solubility [13]: 5760 µg/mL (≈ 13.3 mM)

O=C(O)Cn1c(=O)n(C(=O)CCc2ccccc2Cl)c2ccccc21
inhibition [10]: 21.1%

CC1(C)OC(=O)C=C[C@]2(C)[C@H]3CC[C@@]4(C)[C@H](C5=CC(=O)NC5=O)C[C@H]5O[C@]54[C@]3(C)OC(=O)C[C@@H]12
pIC50 [1]: 5.49

CCN1CCC(S(=O)(=O)NC(=O)Nc2c3c(cc4c2CCC4)CCC3)CC1 [SELNOFLAST]
pIC50 [14]: 6.46

CCO[C@@H]1C[C@H]2C(C)(C)CCC[C@]2(C)C2=C1C=C(C(C)C)C(=O)C2=O
pIC50 [3]: 6.64

COc1c(O)cc2c(c1C)C(=O)C=C1[C@@]2(C)CC[C@@]2(C)[C@@H]3C[C@@H](C)C(=O)[C@@H](O)[C@]3(C)CC[C@]12C
pIC50 [12]: 5.94

CC1(C)OC(=O)C=C[C@@]2(C)[C@H]1CC(=O)[C@@]1(C)C3=CC[C@@H](C4=CC(=O)O[C@@H]4O)[C@]3(C)CC[C@@H]12
pIC50 [1]: 5.49

CS(=O)(=O)CCC#N
pIC50 [15]: 6.00 | Cmax [16]: 41400 ng/mL

CCOCCOc1ccc(/C=C/c2cc(OC)cc(OC)c2/C=C/[N+](=O)[O-])cc1
pIC50 [17]: 5.62
